“Also recorded” adds a separate entry of the source.
Key:
ERRγ = molecular target: T1, ERRγ (Homo sapiens, UniProt P62508); conditions: cited from earlier work
T1 sequence (P62508 1-458): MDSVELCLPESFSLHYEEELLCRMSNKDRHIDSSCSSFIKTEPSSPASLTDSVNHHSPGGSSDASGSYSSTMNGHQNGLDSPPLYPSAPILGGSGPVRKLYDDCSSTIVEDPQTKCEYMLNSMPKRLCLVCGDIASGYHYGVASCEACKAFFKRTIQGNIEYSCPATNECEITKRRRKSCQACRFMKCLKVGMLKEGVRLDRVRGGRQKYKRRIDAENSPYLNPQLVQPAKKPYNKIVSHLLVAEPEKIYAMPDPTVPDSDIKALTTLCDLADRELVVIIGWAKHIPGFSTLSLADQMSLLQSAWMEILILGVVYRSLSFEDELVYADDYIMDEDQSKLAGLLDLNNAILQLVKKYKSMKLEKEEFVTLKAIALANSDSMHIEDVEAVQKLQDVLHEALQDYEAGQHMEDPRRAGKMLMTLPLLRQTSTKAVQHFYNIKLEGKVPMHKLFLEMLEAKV

ERRβ = molecular target: T2, ERRβ (Homo sapiens, UniProt O95718); conditions: cited from earlier work
T2 sequence (O95718 1-433): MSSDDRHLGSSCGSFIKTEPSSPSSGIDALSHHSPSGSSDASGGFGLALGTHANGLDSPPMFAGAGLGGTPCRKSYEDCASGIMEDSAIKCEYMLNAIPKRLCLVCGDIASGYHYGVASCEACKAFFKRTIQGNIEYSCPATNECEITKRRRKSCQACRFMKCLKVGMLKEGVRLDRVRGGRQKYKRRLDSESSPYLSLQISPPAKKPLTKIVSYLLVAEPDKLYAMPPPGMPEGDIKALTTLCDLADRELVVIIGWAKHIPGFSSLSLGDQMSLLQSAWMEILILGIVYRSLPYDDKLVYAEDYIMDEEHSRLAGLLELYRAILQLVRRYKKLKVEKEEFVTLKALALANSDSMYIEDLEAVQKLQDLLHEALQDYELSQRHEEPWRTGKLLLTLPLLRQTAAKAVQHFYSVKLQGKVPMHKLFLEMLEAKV

AMPK = conditions: dose 500 mg/kg/day; cited from earlier work
type II muscle = experiment: AICAR treatment of mice, SDH staining of muscle cryo-sections; format: in vivo; conditions: AICAR 500 mg/kg/day for 4 weeks, intra-peritoneally, male C57Bl/6J mice
Experimental: Drug treatment. Male C57Bl/6J mice (8 weeks old) were intra-peritoneally injected with vehicle or AICAR (500 mg/kg/day), as previously described (Narkar et al., 2008).
Succinate Dehydrogenase (SDH) Staining. SDH staining was performed on […] cryo-sections of gastrocnemius. Briefly, WT and transgenic sections were incubated at 37° C. for 10 min in substrate buffer [0.2M Phosphate buffer containing sodium succinate (250 mg/10 ml) and NBT (10 mg/10 ml)]. Following incubation, sections were washed three times with water following by two washes each with increasing and decreasing concentrations of acetone (30%, 60%, 90%). Finally, the sections were washed three times with water and mounted in an aqueous mounting media.

[1] = dose 500 mg/kg/day; cited from earlier work

CCN(CC)c1ccc(C=NNC(=O)c2ccc(O)cc2)cc1 (stereo in doubt) [GSK9089, N-[(E)-[4-(diethylamino)phenyl]methylideneamino]-4-hydroxybenzamide]
agonist of ERRγ (ERRγ): agonists
agonist of ERRβ (ERRβ): agonists

NC(=O)c1ncn([C@@H]2O[C@H](CO)[C@@H](O)[C@H]2O)c1N [AICAR]
stimulation of AMPK in anaerobic muscle (AMPK): stimulate AMPK in anaerobic muscle
aerobic transformation of skeletal muscle (SDH staining) (type II muscle): able to direct aspects of skeletal muscle transformation in a fashion similar to ERRγ; also recorded: triggers aerobic transformation of type II muscle
aerobic performance [1]: improve aerobic performance

Nc1ccc(C(=O)N/N=C/c2ccc(/N=N/c3ccccc3)cc2)cn1 [E6]
selectivity for ERRγ over ERRα and β (ERRγ; screening assay of Kim et al. 2009): selective for ERRγ but not ERRα and β

CC(C)c1ccc(/C=N/NC(=O)c2ccc(O)cc2)cc1 [GSK4716]
agonist of ERRβ (ERRβ): agonists

Source: patent US20170189485A1, “MODULATION OF ESTROGEN RECEPTOR-RELATED RECEPTOR GAMMA (ERR GAMMA) AND USES THEREFOR” (Salk Institute for Biological Studies, priority 2011, published 2017)
